# Data reported in patent EP4796530A1 (Biocells (Beijing) Biotech Co., Ltd., priority 2023, dated 2025).
# Tests used:
# NLRP3 [1] = biological target: T1, NLRP3 (Mus musculus, UniProt Q8R4B8); experiment: MSU-induced mouse peritonitis model: IL-1β in ascites; assay type: in vivo, C57BL/6J female mice; set-up: tissue National Institutes for Food and Drug Control; host or cells: C57BL/6J mice in vivo (serum IL-1β in A7, ascites IL-1β in A8); details: oral gavage; LPS 2 h later, MSU after another 2 h, ascites 30 min later
# Description: Intraperitoneal injection of LPS and monosodium urate crystals (MSU) in mice can induce the activation of NLRP3 and release of large amounts of IL-1β. […] LPS was purchased from Sigma, Cat. No. L2654. MSU was purchased from Bide Pharmatech Co., Ltd., Cat. No. BD367417. C57BL/6J female mice aged 8 weeks were purchased from National Institutes for Food and Drug Control.
# The mice were administered the example compounds via oral gavage. […] Ascites was collected 30 min later, and then IL-1β protein detection was performed on the ascites.
# Experimental groups: a model group, and an example compound dosing group.
# NLRP3 [2] = biological target: T1, NLRP3; experiment: LPS-induced sepsis model in mice: serum IL-1β and survival rate; assay type: in vivo, C57BL/6 mice; set-up: tissue National Institutes for Food and Drug Control; host or cells: C57BL/6J mice in vivo (serum IL-1β in A7, ascites IL-1β in A8); details: 30 mg/kg intraperitoneally 1 h before 20 mg/kg LPS
# Description: Intraperitoneal injection of 20 mg/kg LPS can induce a septic state in C57BL/6 mice and cause a significant increase in serum IL-1β after injection. Example compounds were intraperitoneally injected preemptively to study the effects on IL-1β increase and mouse survival rate. LPS was purchased from Sigma, Cat. No. L2630; and C57BL/6J male mice aged 6-8 weeks were purchased from National Institutes for Food and Drug Control.
# Experimental groups: a sham group, a model group, and an example compound dosing group.
# 30 mg/kg of example compounds were injected intraperitoneally. 1 h later, 20 mg/kg LPS was injected intraperitoneally into the model group and the example compound dosing group for modeling, and the control solvent was injected into the sham group. Serum samples were collected from a batch of mice at 2.5 h and 4 h after modeling, and the levels of IL-1β were analyzed. For another batch of mice, the survival rate of the mice was calculated after modeling.
# T1 sequence (Q8R4B8 whole entry): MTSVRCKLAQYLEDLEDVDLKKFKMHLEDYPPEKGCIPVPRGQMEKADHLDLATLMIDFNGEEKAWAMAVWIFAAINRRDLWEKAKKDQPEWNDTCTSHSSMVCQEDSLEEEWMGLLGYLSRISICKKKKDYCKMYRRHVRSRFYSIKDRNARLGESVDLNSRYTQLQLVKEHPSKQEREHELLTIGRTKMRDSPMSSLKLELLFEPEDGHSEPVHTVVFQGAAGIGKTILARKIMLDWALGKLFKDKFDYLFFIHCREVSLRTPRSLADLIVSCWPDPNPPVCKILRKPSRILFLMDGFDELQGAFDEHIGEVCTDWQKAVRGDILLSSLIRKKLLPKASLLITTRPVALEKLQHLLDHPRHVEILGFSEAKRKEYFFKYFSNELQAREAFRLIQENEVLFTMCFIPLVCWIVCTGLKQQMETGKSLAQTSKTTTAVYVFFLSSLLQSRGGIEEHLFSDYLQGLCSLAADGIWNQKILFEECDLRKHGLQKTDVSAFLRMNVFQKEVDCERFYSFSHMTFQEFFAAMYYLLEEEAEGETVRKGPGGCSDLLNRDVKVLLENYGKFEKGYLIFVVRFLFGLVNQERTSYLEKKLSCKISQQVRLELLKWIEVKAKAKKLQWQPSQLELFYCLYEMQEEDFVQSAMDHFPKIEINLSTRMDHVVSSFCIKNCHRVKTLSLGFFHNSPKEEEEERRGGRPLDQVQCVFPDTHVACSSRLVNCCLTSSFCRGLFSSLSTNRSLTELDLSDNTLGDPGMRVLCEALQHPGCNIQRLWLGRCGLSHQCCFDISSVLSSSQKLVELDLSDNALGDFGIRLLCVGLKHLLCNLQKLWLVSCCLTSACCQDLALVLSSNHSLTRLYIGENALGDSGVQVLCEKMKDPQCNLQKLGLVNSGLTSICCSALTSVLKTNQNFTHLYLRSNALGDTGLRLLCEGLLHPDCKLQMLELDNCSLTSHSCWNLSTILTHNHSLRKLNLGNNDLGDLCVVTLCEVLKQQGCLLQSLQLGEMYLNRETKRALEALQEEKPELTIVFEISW
structure (smiles),measurement,setting,value
"CN(C)Cc1cccc(S(=O)(=O)NC(=O)Nc2c3c(cc4c2CCC4)CCC3)c1N [Example 19, 2-amino-3-((dimethylamino)methyl)-N-((1,2,3,5,6,7-hexahydro-s-indacen-4-yl)carbamoyl)benzenesulfonamide]",level of IL-1β in ascites compared with the model group,NLRP3 [1],significantly inhibited
same,mouse survival rate compared with the model group,NLRP3 [2],significantly improved
same,survival rate compared with MCC950,NLRP3 [2],significantly further improved
same,IL-1β level in serum compared with the model group,NLRP3 [2]; 2.5 h after modeling,significant differences
same,IL-1β level in serum compared with the model group,NLRP3 [2]; 4 h after modeling,significant differences
